Data: patent US4038384A, “Antibiotic A-28086 and process for production thereof” (Eli Lilly and Company, priority 1975, dated 1977)

How the values were obtained:
[1] = Electrometric titration in 80% aqueous dimethylformamide (pKa)
[2] = system: Staphylococcus aureus (H-Heatley) NRRL B-314; experiment: Turbidometric assay (Autoturb), relative gram-positive activity; type: cell-based; details: relative to A-28086 factor A standard = 1; nutrient broth pH 7, 4 hours, 37° C.
Experimental: The C2 -C6 -acyl ester derivatives of A-28086 factor A also have antibacterial and antifungal activity. In one aspect, these derivatives have increased gram-positive activity. The relative gram-positive activities of certain of these derivatives were compared with the activity of factor A. The compounds were tested by turbidometric assay on a semiautomated system (Autoturb microbiological assay system, Elanco) described by N. R. Kuzel and F. W. Kavanaugh in J. Pharmaceut. Sci. 60 (5), 764 and 767 (1971). In testing the A-28086 antibiotics, the following test parameters were used: Staphylococcus aureus (H-Heatley) NRRL B-314 in a nutrient broth medium (pH 7), incubated for 4 hours at 37° C. Test samples and the standard were dissolved in methanol-water (10:90). The standard, A-28086 factor A, was presented to the Autoturb carrousel at concentrations of 2, 3, 4, and 5 mcg/ml. Test compounds were diluted to contain approximately 3 or 4 mcg of activity per ml, as presented to the carrousel. The relative activities of test compounds, as compared to that of the standard, are given below: […]

[3] = system: rumen flora; experiment: In vitro rumen fluid test, volatile fatty acid production; type: cell-based, steer; details: 1 ppm in rumen fluid, 16 hours, 38° C.
From the text: As discussed hereinabove, efficiency of carbohydrate utilization in ruminants is increased by treatments which stimulate the animal's rumen flora to produce propionate compounds rather than acetate or butyrate compounds. The efficiency of feed use can be monitored by observing the production and concentration of propionate compounds in the rumen, using the following methods:
Rumen fluid is obtained from a steer with a surgically-installed fistula opening into the rumen. The steer is maintained on a high-grain ration. A sample of rumen fluid is strained through four layers of cheesecloth, and the filtrate is collected. The particulate matter retained by the cheesecloth is resuspended in enough physiological buffer to return it to the original volume of the rumen fluid, and this suspension is strained again. The buffer used has the following composition:
The two filtrates are combined and allowed to stand until particulate matter separates to the top. The clear layer is separated, diluted with the same buffer (1:1) and then adjusted to between pH 6.8 to 7.0.
The diluted rumen fluid (10 ml) is placed in a 25-ml flask with 40 mg of the above-described feed, an additional 1 mg of soybean protein, and the compound to be tested. Four replicate flasks are used per treatment. Two sets of four control flasks each are also employed. A zero-time control and an incubated 16-hour control are used. All test flasks are incubated for 16 hours at 38° C. […] The samples are allowed to settle, and the supernatants are analyzed by gas chromatography for propionate, acetate, and butyrate compounds.

[4] = In vivo feed-utilization efficiency in sheep; details: 56 days
[5] = system: E. necatrix and E. tenella; experiment: Anticoccidial activity in chicks against mixed Eimeria species; type: in vivo, E. necatrix and E. tenella; broiler cockerels; details: 0.005% in feed
From the text: (§1) ^1 Four replicates, 5 broiler cockerels each.

[6] = system: E. tenella, E. necatrix, E. maxima, E. brunetti, E. acervulina, and E. mivati; experiment: as above; type: in vivo; details: 0.01% in feed
From the text: as §1

[7] = system: ruminal propionic acid; experiment: In vivo ruminal propionic acid concentration in fistulated steers; details: 100 mg/day, mean of five analyses in 14 days
Experimental: The test reported in Table XII was conducted with mature fistulated steers weighing about 1,000 lbs. each. Two steers were fed a normal diet, and four steers in each treatment group were fed an identical diet to which A-28086 factor A had been added. To each aliquot (100 ml) of rumen fluid taken, 10 percent metaphosphoric acid (100 ml) was added. The samples were allowed to settle, and the supernatants were analyzed by gas chromatographic methods to determine propionic acid concentrations.
The results in Table XII are the mean percent increases in ruminal propionic acid concentration, averaged over five analyses in a 14-day treatment period. Controls had approximately 20 molar percent propionic acid.

[8] = Solubility in water and organic solvents; type: physicochemical; details: nonpolar organic solvents such as hexane
[9] = system: Eimeria tenella; experiment: Anticoccidial activity in chicks against Eimeria tenella; type: in vivo, Eimeria tenella; chickens; details: for Percent Weight Gain: normal controls 100
[10] = General microbiological (antibacterial/antifungal) activity; type: cell-based; details: in words

CCC(C(=O)O)C1OC(C(C)C(O)C(C)C(=O)C(CC)C2OC3(C=CC(OC(C)=O)C4(CCC(C)(C5CCC(O)(CC)C(C)O5)O4)O3)C(C)CC2C)C(C)CC1C (stereo not shown) [A-28086 factor A acetyl ester derivative, A-28086 factor A acetyl ester]
pKa value of titratable group [1]: 8.5
Relative G^+ Activity [2]: 2.5
Ratio of Treated to Control, Molar % acetate [3]: 0.79
Ratio of Treated to Control, Molar % butyrate [3]: 0.76

CCCC(=O)OC1C=CC2(OC(C(CC)C(=O)C(C)C(O)C(C)C3OC(C(CC)C(=O)O)C(C)CC3C)C(C)CC2C)OC12CCC(C)(C1CCC(O)(CC)C(C)O1)O2 (stereo not shown) [A-28086 factor A n-butyryl ester derivative]
Relative G^+ Activity [2]: 8
Ratio of Treated to Control, Molar % acetate [3]: 0.91
Ratio of Treated to Control, Molar % butyrate [3]: 0.81

CCCCCC(=O)OC1C=CC2(OC(C(CC)C(=O)C(C)C(O)C(C)C3OC(C(CC)C(=O)O)C(C)CC3C)C(C)CC2C)OC12CCC(C)(C1CCC(O)(CC)C(C)O1)O2 (stereo not shown) [A-28086 factor A n-caproyl ester derivative]
Relative G^+ Activity [2]: 20
Ratio of Treated to Control, Molar % acetate [3]: 0.86
Ratio of Treated to Control, Molar % butyrate [3]: 0.97
Ratio of Treated to Control, Total VFA mM/l [3]: 0.99

CCCCC(=O)OC1C=CC2(OC(C(CC)C(=O)C(C)C(O)C(C)C3OC(C(CC)C(=O)O)C(C)CC3C)C(C)CC2C)OC12CCC(C)(C1CCC(O)(CC)C(C)O1)O2 (stereo not shown) [A-28086 factor A n-valeryl ester derivative]
Relative G^+ Activity [2]: 14
Ratio of Treated to Control, Molar % acetate [3]: 0.92
Ratio of Treated to Control, Molar % butyrate [3]: 0.79

CCC(=O)OC1C=CC2(OC(C(CC)C(=O)C(C)C(O)C(C)C3OC(C(CC)C(=O)O)C(C)CC3C)C(C)CC2C)OC12CCC(C)(C1CCC(O)(CC)C(C)O1)O2 (stereo not shown) [A-28086 factor A propionyl ester derivative]
Relative G^+ Activity [2]: 7
Ratio of Treated to Control, Molar % acetate [3]: 0.90
Ratio of Treated to Control, Molar % butyrate [3]: 0.68

CCC(C(=O)O)C1OC(C(C)C(O)C(C)C(=O)C(CC)C2OC3(C=CC(O)C4(CCC(C)(C5CCC(O)(CC)C(C)O5)O4)O3)C(C)CC2C)C(C)CC1C (stereo not shown) [A-28086 factor A]
Feed/Grain ([4]; 9 g per ton of feed): 7.40
Feed/Grain ([4]; 18 g per ton of feed): 8.31
Cecal Lesions Percent Reducton [5]: 50%
Cecal Lesions Percent Reducton [6]: 73%
pKa value of titratable group [1]: 7.9
Percent Increase Over Control in ruminal propionic acid concentration [7]: 54.0%
Relative G^+ Activity [2]: 1
solubility in nonpolar organic solvents [8]: only slightly soluble
Percent Reduction in Lesion Score ([9]; 0.0025% in feed, second group): 0%
Percent Mortality ([9]; 0.0025% in feed, second group (20 chickens)): 10%
Percent Weight Gain ([9]; 0.0025% in feed, second group): 87%
Average Lesion Score ([9]; 0.005% in feed, second group): 2.8
Percent Reduction in Lesion Score ([9]; 0.005% in feed, second group): 27%
Percent Mortality ([9]; 0.005% in feed, second group (20 chickens)): 0%
Percent Weight Gain ([9]; 0.005% in feed, second group): 91%
Average Lesion Score ([9]; 0.01% in feed, first group): 0.2
Percent Reduction in Lesion Score ([9]; 0.01% in feed, first group): 95%
Percent Mortality ([9]; 0.01% in feed, first group (10 chickens)): 0%
Percent Weight Gain ([9]; 0.01% in feed, first group): 94%
Average Lesion Score ([9]; 0.01% in feed, second group): 0
Percent Reduction in Lesion Score ([9]; 0.01% in feed, second group): 100%
Percent Mortality ([9]; 0.01% in feed, second group (20 chickens)): 0%
Percent Weight Gain ([9]; 0.01% in feed, second group): 96%
Average Lesion Score ([9]; 0.02% in feed, first group): 0.2
Percent Reduction in Lesion Score ([9]; 0.02% in feed, first group): 95%
Percent Mortality ([9]; 0.02% in feed, first group (10 chickens)): 0%
Percent Weight Gain ([9]; 0.02% in feed, first group): 82%
Average Lesion Score ([9]; 0.02% in feed, second group): 0
Percent Reduction in Lesion Score ([9]; 0.02% in feed, second group): 100%
Percent Mortality ([9]; 0.02% in feed, second group (20 chickens)): 0%
Percent Weight Gain ([9]; 0.02% in feed, second group): 84%
Average Lesion Score ([9]; 0.04% in feed, first group): 0
Percent Reduction in Lesion Score ([9]; 0.04% in feed, first group): 100%
Percent Mortality ([9]; 0.04% in feed, first group (10 chickens)): 0%
Percent Weight Gain ([9]; 0.04% in feed, first group): 50%
Ratio of Treated to Control, Molar % acetate [3]: 0.94
Ratio of Treated to Control, Molar % butyrate [3]: 0.87

CCC(C(=O)OC)C1OC(C(C)C(O)C(C)C(=O)C(CC)C2OC3(C=CC(O)C4(CCC(C)(C5CCC(O)(CC)C(C)O5)O4)O3)C(C)CC2C)C(C)CC1C (stereo not shown) [A-28086-I]
microbiological activity [10]: not microbiologically active
